Consider four molecules from patent US6759419B2, “Pyrrolidinone derivatives, their preparation and pharmaceutical composition comprising the same” (Korea Institute of Science and Technology, priority 2001, dated 2004).

In assay [1] the target is muscarinic receptors. Briefly: [3H]-N-methyl-scopolamine ([3H]-NMS) affinity screening test. On the set-up: species or system rat. To be noted: inhibition of 50% of specific binding of [3H]-NMS to the receptor; cortex receptor of rats. The text has this: [^3H]-N-methyl-scopolamine ([^3H]-NMS) Affinity Screening Test
In order to exclude the interaction between subtypes, human recombinant muscarinic receptor subtypes 1, 2 and 3 expressed in CHO cells (M1, M2 and M3, Biosignal, Canada) were purchased and used as receptor sources. [^3H]-N-methyl-scopolamine (NEN, NET-636) was used as radioisotope labeled ligands, and atropine was used for the measurement of the non-specific binding ability. About 10 kinds of experimental apparatuses including Liquid Scintillation Counter (MicroBeta 1450 plus), Inotech cell harvester (96-well) were used.
In order to determine the effect of each compound on M1 and M2 receptors, the compounds were reacted with the receptors using radioisotope labeled ligands. After the reaction, the excess unbound ligands were removed by filtering with a glass fiber filter. The amount of radioisotopes remaining on the washed filter plate was then measured to quantify the binding reaction between the receptors and the ligands and, from the results, the affinity of the drugs for the receptors was determined.
The freeze-stored receptors at −70° C. were suspended in test buffer solutions and then the screening test (BioRad protein) was carried out to determine the optimum concentration of the proteins. Thereafter, 50 μL of hot-ligands and 10 μL of test drugs were added to 96-well plate and 100 μL of 50 mM TRIS buffer (pH 7.2) containing 10 mM MgCl2 and 1 mM EDTA was added as a test buffer. The final volume of the reaction was […]. The reaction was initiated by adding 100 μL of the diluted receptor suspension, and continued for 60 minutes on a shaking incubator at 27° C. This test for the test drugs was repeated four times. After 60 minutes, the reaction was terminated by adding cold TRIS buffer (0.5 mL, pH 7.4). The excess unbound radioisotopes were removed from the reaction mixture using Inotech cell harvester system. After washing the mixture, the radioactivity detected by the filter mat was measured using Liquid Scintillation Counter. As primary stage of the efficacy screening, the drugs at two concentrations (1 μM, 10 μM) were screened for their affinity for the receptors. As secondary stage, the drugs showing remarkable efficacies were determined at the lower concentrations. Finally, IC50 values were calculated at the gradient of 10 concentrations. […] From the saturation affinity screening test, Kd and Bmax values, and IC50 or Ki values of each test drugs were calculated by observing the non-linear regression using prism (Graphpad software Inc.,USA). […]
(§1) The following table 1 illustrates the affinity of representative compounds of the present invention for muscarinic receptors measured by binding of [^3H]-N-methyl scopolamine ([^3H]-NMS) and [^3H]-oxotremorine ([^3H]-Oxo-M) to cortex receptor of rats. […]

Assay [2] deals with muscarinic receptors (Oxo-M binding receptor, forebrain synapse membranes). Briefly: [3H]-oxotremorine-M ([3H]-Oxo-M) affinity screening test. To be noted: inhibition of 50% of specific binding of [3H]-Oxo-M (5 nM) to the receptor; rat brain membranes. The procedure:
[^3H]-oxotremorine-M ([^3H]-Oxo-M) Affinity Screening Test
The experimental principle was the same as [^3H]-NMS affinity screening test. The present experiment was carried out in order to identify the pharmacological functions (an agonist or antagonist) of the compounds showing high affinity in [3H]-NMS affinity screening test. The functions of the compounds may be determined by carrying out both of [^3H]-NMS and [^3H]-Oxo-M (oxotremorine) affinity screening tests to measure their respective IC50 values and calculating ratios (NMS/Oxo-M) of the measured IC50 values. Generally, the compounds are evaluated as muscarinic receptor full agonists when the ratio is greater than 180, as partial agonists when the ratio is from 14 to 130, and as antagonists when the ratio is from 0.2 to 1.9.
Preparation of Brain Membrane
Synapse membranes for binding assay of Oxo-M binding receptor of muscarinic receptors were directly prepared and used in the laboratory as follows: male Sparague-Dawley rats (supplied from Laboratory Animal Center of Korea Research Institute of Chemical Technology, 250 to 300 g) were sacrificed by decapitation. The brain tissues were immediately removed and the forebrain was obtained, which was sectioned into small pieces. After adding 10-fold amount of ice-cooled solution of sucrose (0.32M), the sectioned forebrain was homogenized using Teflon-glass homogenizer (Contorque, Eberbach) at 10 strokes and 500 rpm, centrifuged at 1000 g for 15 minutes, and then the supernatant was again centrifuged at 17000 g for 20 minutes. The pellet was stored at −20° C. and then used.
Before the pellet was used at this assay, it was suspended in 10 mL of […] HEPES buffer (pH 7.4), again centrifuged at 17000 g for 15 minutes and then washed. Finally, the washed membrane was diluted in ice-cooled 20 mM HEPES buffer (pH 7.4) to the final concentration of 1:100 (wet wt/v) and used at this assay. All test samples were tested four times, and 20 mM HEPES buffer (pH 7.4) was used as a buffer for screening test. […] The radioactivity of the receptor binding ligands was detected by Liquid Scintillation Counter (MicroBeta Plus, Wallac, Finland).
The test drugs were diluted sequentially for the required concentrations by dissolving them in dimethylsulfoxide (DMSO) and used in the test. […] From the saturated affinity screening test, Kd and Bmax values, and IC50 or Ki values of respective test drugs were calculated by observing the non-linear regression using prism (Graphpad software Inc., USA). […]
as §1

Turning to `COC(=O)C1=CCCN(C)C1` [Arecoline, reference compound], the IC50 in assay [1] stood at 87100 nM; in assay [2] it was 140 nM.
Regarding `CN1CCC=C(C2=NOC(N3CCCC3=O)C2)C1` (centres unmarked) [Example 15, 1-[3-(1-methyl-1,2,5,6-tetrahydropyridin-3-yl)-4,5-dihydro-isoxazol-5-yl]-pyrrolidin-2-one], the half-inhibitory concentration (IC50) was determined as 8310 nM in assay [1] and 220 nM in assay [2].
As for `CN1CCC=C(C2=NOC(CN3CCCC3=O)C2)C1` (centres unmarked) [Example 18, 1-[3-(1-methyl-1,2,5,6-tetrahydro-pyridin-3-yl)-4,5-dihydro-isoxazol-5-yl-methyl]-pyrrolidin-2-one], the figures for the IC50 in assay [1] and in assay [2] were 180 nM and 30 nM, respectively.
As for `CN1CCC=C(c2cc(CN3CCCC3=O)on2)C1` [Example 23, 1-[3-(1-methyl-1,2,5,6-tetrahydro-pyridin-3-yl)-isoxazol-5-yl-methyl]-pyrrolidin-2-one], the concentration for half-maximal inhibition (IC50) is 1490 nM in assay [1] and 370 nM in assay [2].

What is called IC50 is the concentration that inhibits the measured activity by half. Higher therefore signals lower potency.
